Test results taken from patent publication EP4741414A1, “PEPTIDE HAVING CELL MEMBRANE PERMEABILITY AND SCREENING METHOD THEREFOR” (priority 2023, dated 2025).
Primed or numbered codes have the meaning given here. No end group written: not given here. PEG8′ = PEG8 linker (eight-unit polyethylene glycol spacer); FAM = fluorescein amidite

Assays:
A549 cells = experiment: Intracellular delivery of Alexa 647-labeled IgG-peptide conjugates to A549 cells; format: cell-based; conditions: for cell-type-selective plasma membrane-penetrating activity: A549 cells versus macrophages, 1 µM, FIG. 16; for intracellularly delivered amount into A549 cells: final concentration 1 µM, uptake time 1 h, compared with T001, T006 conjugates, FIG. 15
Experimental: Cells 1 hour after the addition of the protein solution were observed and photographed with an all-in-one fluorescence microscope BZ-X810 (Keyence Corporation) in the same manner as in Experimental Example 14 except that A549 cells cultured in the same manner as in Experimental Example 11 were used, followed by image analysis with software BZ-X800 Analyzer included therein. The uptake ratios of the proteins at an uptake time of 1 hour, which were each determined from the ratio of the brightness (integrated) of a red color to the brightness (integrated) of a blue color, were compared to each other. The results are shown in FIG. 15 (in the figure, the height of a bar represents the average of "n" values (n=2 to 3) and an error bar represents its standard deviation).

THP-1 macrophages = experiment: Intracellular delivery of Alexa 647-labeled IgG-peptide conjugates to THP-1 macrophages; format: cell-based; conditions: for intracellular delivery amount of IgG: final concentration 5 µM, versus IgG, FIG. 12, FIG. 13; for intracellular delivery amount of IgG / intracellularly delivered amount into macrophages: uptake time 1 h; for intracellularly delivered amount into macrophages: final concentration 1 µM, compared with R001, R005 conjugates, FIG. 14; for cell-type-selective plasma membrane-penetrating activity: macrophages versus A549 cells, 1 µM, FIG. 16
Description: The reaction liquid was applied to a Zeba spin desalting column (7K MWCO) equilibrated with PBS, and an unreacted cross-linking agent was removed. Thus, an IgG fraction was recovered. The peptides (synthesized by Eurofins Genomics K.K., the amino acid sequences of the peptides that are each conjugated with the IgG are shown in the following table) obtained by the above-mentioned screening, the peptides each including an amino acid sequence and each having C at its N-terminal, were each dissolved in DMSO so that a 10 mM DMSO solution was obtained. The DMSO solution of the peptide whose molar amount was 5 times as large as that of the IgG was added to the recovered IgG fraction, and EDTA was further added to the mixture so that its final concentration was 1 mM, followed by stirring by inversion at 25°C for 1 hour. After that, a fivefold molar amount of cysteine was added to the mixture, and the whole was stirred by inversion at 25°C for 30 minutes. The reaction liquid was applied to a Zeba spin desalting column (7K MWCO) equilibrated with PBS, and the peptide and cysteine that were unreacted, and EDTA were removed. Thus, an IgG-peptide conjugate was recovered.
The assay was conducted using THP-1 macrophages, which had been seeded in a 96-well plate at 20,000 cells/well, and had already been activated with PMA, IFN γ, and LPS. […] Images acquired with the all-in-one fluorescence microscope BZ-X810 (Keyence Corporation) were analyzed using the accompanying software BZ-X800 Analyzer. The uptake ratio at an uptake time of 1 h was compared based on the ratio of integrated red fluorescence intensity to integrated blue fluorescence intensity.
The uptake ratios of the proteins at an uptake time of 1 hour, which were each determined from the ratio of the brightness (integrated) of a red color to the brightness (integrated) of a blue color, were compared to each other.

[1] = system: three-dimensional skin model EpiDerm Full Thickness 400
Experimental: A three-dimensional skin model EpiDerm Full Thickness 400 was prepared in accordance with the manual of its manufacturer in the same manner as in Experimental Example 8. […] As a control, the known cell-penetrating peptide TAT (the sequence obtained by removing C at the N-terminal from the amino acid sequence shown in SEQ ID NO: 51) was used, and the N-terminal side thereof was modified with FAM (similarly synthesized by Eurofins Genomics K.K., theoretical molecular weight: 1,979.2).
100 Microliters of a 1% DMSO-containing PBS solution of each of the FAM-modified peptides was added to a central portion on the donor side of a cup in which the skin model was built to initiate the penetrability assay (n=3). After incubation at 37 °C under 5% CO2 for 24 h, the medium outside the cup was collected, and the concentration of peptide that penetrated the skin model was quantified fluorometrically using a microplate reader (TECAN Spark; excitation wavelength: 494 nm, emission wavelength: 521 nm).

## CGGSRVVSYLAEYH [R005]
A549 cells
  cell-type-selective plasma membrane-penetrating activity: cell-type-selective plasma membrane-penetrating activity in A549 cells
  intracellularly delivered amount into A549 cells: greater increase in the intracellularly delivered amount into A549 cells

## CGKEGGSRWLIFHYMLLGG [T005]
THP-1 macrophages
  intracellular delivery amount of IgG: increased the intracellular delivery amount of IgG

## CLFKAWLGVYH [R001]
A549 cells
  cell-type-selective plasma membrane-penetrating activity: cell-type-selective plasma membrane-penetrating activity in A549 cells
  intracellularly delivered amount into A549 cells: greater increase in the intracellularly delivered amount into A549 cells

## CRWPLWMWFVW [T001]
THP-1 macrophages
  intracellularly delivered amount into macrophages: greater increase in the intracellularly delivered amount into macrophages
  intracellular delivery amount of IgG: increased the intracellular delivery amount of IgG
  cell-type-selective plasma membrane-penetrating activity: cell-type-selective plasma membrane-penetrating activity in macrophages

## CRYYAHWLHYM [T006]
THP-1 macrophages
  intracellularly delivered amount into macrophages: greater increase in the intracellularly delivered amount into macrophages
  intracellular delivery amount of IgG: increased the intracellular delivery amount of IgG
  cell-type-selective plasma membrane-penetrating activity: cell-type-selective plasma membrane-penetrating activity in macrophages

## CYGRKKRRQRRR (CYGRKKRRQRRR-NH2; also: conjugated to Alexa 647-IgG via maleimide-PEG2-NHS) [TAT, Alexa 647-labeled IgG bonded with known membrane-permeable peptide TAT via Maleimide-PEG2-NHS Ester, reference compound]
THP-1 macrophages
  intracellular delivery amount of IgG: no increase in cellular translocation was observed

## FAM-labeled SEQ ID NO: 40 peptide: N-terminal side of the peptide represented by SEQ ID NO: 40 modified with fluorescein amidite (FAM) through a PEG8 linker ({FAM-PEG8′}-RWNCVSCAFL; cysteine pairing not given here)
[1]
  penetrability (ratio of penetrated amount outside the cup to added amount): 49.8±10.0%
